# Results: patent publication US7767659B2, “Synthesis of naturally occurring ecteinascidins and related compounds” (Pharma Mar, S.A., priority 2002, dated 2010)
# Read-outs that look alike come from different tables or passages of the source.
# Key:
# IGROV-1 = assay: Inhibition of cells growth by colorimetric assay (SRB); details: Homo sapiens, IGROV-1, 48 h
# Outline: (§1)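 Colorimetric SRB read (490 nm) on triplicate wells after 48 h at 37 °C, 5% CO2. Dose range 10 to 10^−8 μg/ml; 5×10^3 cells/well pre-attached 18 h.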
# SK-BR-3 = assay: as above; details: Homo sapiens, SK-BR-3, 48 h
# Outline: as §1
# HeLa = assay: as above; details: Homo sapiens, HeLa, 48 h
# Outline: as §1
# LNCaP = assay: as above; details: Homo sapiens, LNCaP, 48 h
# Outline: as §1
# HeLa-APL = assay: as above; details: Homo sapiens, 48 h
# Outline: as §1
# IGROV-ET = assay: as above; details: Homo sapiens, 48 h
# Outline: as §1
# SK-MEL-28 = assay: as above; details: Homo sapiens, SK-MEL-28, 48 h
# Outline: as §1
# PANC-1 = assay: as above; details: Homo sapiens, PANC-1, 48 h
# Outline: as §1
# DU-145 = assay: as above; details: Homo sapiens, DU-145, 48 h
# Outline: as §1
# K-562 = assay: as above; details: Homo sapiens, K562, 48 h
# Outline: as §1
# LoVo-Dox = assay: as above; details: Homo sapiens, 48 h
# Outline: as §1
# LoVo = assay: cells; details: Homo sapiens, LoVo, 48 h
# Outline: as §1
# HT-29 = assay: cells; details: Homo sapiens, HT-29, 48 h
# Outline: as §1
# A-549 = assay: cells; details: Homo sapiens, A549, 48 h
# Outline: as §1
smiles,measurement,setting,value
C=CCN1[C@@H]2c3c(cc(C)c(OC)c3O)C[C@H]1[C@H](C#N)N1C2[C@@H]2SCC(NC(=O)C(F)(F)F)C(=O)OC[C@H]1c1c3c(c(C)c(OC(C)=O)c12)OCO3 (stereo partly shown) [compound 25],GI50,IGROV-1; read-out: GI50 IGROV,660 nM
same,CC50,IGROV-1; read-out: LC50 IGROV,8010 nM
same,IC (TGI),IGROV-1; read-out: TGI IGROV,1430 nM
same,GI50,SK-BR-3; read-out: GI50 SK-BR3,555 nM
same,CC50,SK-BR-3; read-out: LC50 SK-BR3,8640 nM
same,IC (TGI),SK-BR-3; read-out: TGI SK-BR3,1060 nM
same,GI50,HeLa; read-out: GI50 HELA,1500 nM
same,CC50,HeLa; read-out: LC50 HELA,8110 nM
same,IC (TGI),HeLa; read-out: TGI HELA,3480 nM
same,GI50,LNCaP; read-out: GI50 LNCAP,323 nM
same,CC50,LNCaP; read-out: LC50 LNCAP,2550 nM
same,IC (TGI),LNCaP; read-out: TGI LNCAP,757 nM
same,GI50,HeLa-APL; read-out: GI50 HELA-APL,939 nM
same,CC50,HeLa-APL; read-out: LC50 HELA-APL,7690 nM
same,IC (TGI),HeLa-APL; read-out: TGI HELA-APL,2780 nM
same,GI50,IGROV-ET; read-out: GI50 IGROV-ET,1610 nM
same,CC50,IGROV-ET; read-out: LC50 IGROV-ET,12100 nM
same,IC (TGI),IGROV-ET; read-out: TGI IGROV-ET,4410 nM
same,GI50,SK-MEL-28; read-out: GI50 MEL-28,632 nM
same,CC50,SK-MEL-28; read-out: LC50 MEL-28,5650 nM
same,IC (TGI),SK-MEL-28; read-out: TGI MEL-28,1770 nM
same,GI50,PANC-1; read-out: GI50 PANC-1,1370 nM
same,CC50,PANC-1; read-out: LC50 PANC-1,11000 nM
same,IC (TGI),PANC-1; read-out: TGI PANC-1,3900 nM
same,GI50,DU-145; read-out: GI50 DU145,861 nM
same,CC50,DU-145; read-out: LC50 DU145,6570 nM
same,IC (TGI),DU-145; read-out: TGI DU145,2200 nM
same,GI50,K-562; read-out: GI50 K562,316 nM
same,CC50,K-562; read-out: LC50 K562,3780 nM
same,IC (TGI),K-562; read-out: TGI K562,775 nM
same,GI50,LoVo-Dox; read-out: GI50 LOVO-DOX,904 nM
same,CC50,LoVo-Dox; read-out: LC50 LOVO-DOX,13900 nM
same,IC (TGI),LoVo-Dox; read-out: TGI LOVO-DOX,3770 nM
same,GI50,LoVo; read-out: GI50 LOVO,938 nM
same,CC50,LoVo; read-out: LC50 LOVO,9270 nM
same,IC (TGI),LoVo; read-out: TGI LOVO,3160 nM
same,GI50,HT-29; read-out: GI50 HT29,1640 nM
same,CC50,HT-29; read-out: LC50 HT29,13900 nM
same,IC (TGI),HT-29; read-out: TGI HT29,8570 nM
same,GI50,A-549; read-out: GI50 A549,927 nM
same,CC50,A-549; read-out: LC50 A549,11500 nM
same,IC (TGI),A-549; read-out: TGI A549,3450 nM
COc1cc2c(cc1O)CCN[C@]21CS[C@@H]2c3c(OC(C)=O)c(C)c4c(c3[C@H](COC1=O)N1C2C2c3c(cc(C)c(OC)c3O)C[C@@H]([C@@H]1C#N)N2C)OCO4 (stereo partly shown) [Et-770],GI50,IGROV-1; read-out: IGROV GI50,3.32 nM
same,CC50,IGROV-1; read-out: IGROV LC50,13000 nM
same,IC (TGI),IGROV-1; read-out: IGROV TGI,8.51 nM
same,GI50,SK-BR-3; read-out: SK-BR3 GI50,0.986 nM
same,CC50,SK-BR-3; read-out: SK-BR3 LC50,13000 nM
same,IC (TGI),SK-BR-3; read-out: SK-BR3 TGI,94.8 nM
same,GI50,HeLa; read-out: HELA GI50,5.09 nM
same,IC (TGI),HeLa; read-out: HELA TGI,12.6 nM
same,GI50,LNCaP; read-out: LNCAP GI50,1.48 nM
same,CC50,LNCaP; read-out: LNCAP LC50,6.34 nM
same,IC (TGI),LNCaP; read-out: LNCAP TGI,3.06 nM
same,GI50,HeLa-APL; read-out: HELA-APL GI50,2.96 nM
same,CC50,HeLa-APL; read-out: HELA-APL LC50,12.2 nM
same,IC (TGI),HeLa-APL; read-out: HELA-APL TGI,6.01 nM
same,GI50,IGROV-ET; read-out: IGROV-ET GI50,12.1 nM
same,CC50,IGROV-ET; read-out: IGROV-ET LC50,13000 nM
same,IC (TGI),IGROV-ET; read-out: IGROV-ET TGI,4500 nM
same,GI50,SK-MEL-28; read-out: MEL-28 GI50,2.63 nM
same,CC50,SK-MEL-28; read-out: MEL-28 LC50,10.8 nM
same,IC (TGI),SK-MEL-28; read-out: MEL-28 TGI,5.34 nM
same,GI50,PANC-1; read-out: PANC-1 GI50,5.53 nM
same,CC50,PANC-1; read-out: PANC-1 LC50,13000 nM
same,IC (TGI),PANC-1; read-out: PANC-1 TGI,115 nM
same,GI50,DU-145; read-out: DU145 GI50,4.16 nM
same,CC50,DU-145; read-out: DU145 LC50,13000 nM
same,IC (TGI),DU-145; read-out: DU145 TGI,32 nM
same,GI50,K-562; read-out: K562 GI50,1.65 nM
same,CC50,K-562; read-out: K562 LC50,6630 nM
same,IC (TGI),K-562; read-out: K562 TGI,8.02 nM
same,GI50,LoVo-Dox; read-out: LOVO-DOX GI50,74.1 nM
same,IC (TGI),LoVo-Dox; read-out: LOVO-DOX TGI,13000 nM
same,GI50,LoVo; read-out: LOVO GI50,3.09 nM
same,CC50,LoVo; read-out: LOVO LC50,11.4 nM
same,IC (TGI),LoVo; read-out: LOVO TGI,5.93 nM
same,GI50,HT-29; read-out: HT29 GI50,5.86 nM
same,CC50,HT-29; read-out: HT29 LC50,13000 nM
same,IC (TGI),HT-29; read-out: HT29 TGI,13 nM
same,GI50,A-549; read-out: A549 GI50,3.24 nM
same,CC50,A-549; read-out: A549 LC50,5200 nM
same,IC (TGI),A-549; read-out: A549 TGI,6.98 nM
